Data published in ChEMBL document CHEMBL1201862, “PubChem BioAssay data set” (2004).
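These data come from cells grown in 96-well plates and exposed to compound for 48 hours at five concentrations. Abbreviation: GI50, concentration required for 50% inhibition of growth.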 Activity calls are given as the source filed them. No stated cut-off is given here; in the data, active = GI50 up to about 1.1 µM and inactive = higher.

Assays:
Experiment in all cases: NCI-60 cell line screen, 48 h
[1] = system: 786-0
[2] = system: A498
[3] = system: A549
[4] = system: ACHN
[5] = system: BT-549
[6] = system: CAKI-1
[7] = system: CCRF-CEM
[8] = system: COLO 205
[9] = system: DU-145
[10] = system: EKVX
[11] = system: HCC 2998
[12] = system: HCT-116
[13] = system: HCT-15
[14] = system: HOP-62
[15] = system: HOP-92
[16] = system: HT-29
[17] = system: Hs-578T
[18] = system: IGROV-1
[19] = system: K562
[20] = system: KM12
[21] = system: LOX IMVI
[22] = system: M14
[23] = system: MCF7
[24] = system: MDA-MB-231
[25] = system: MDA-MB-435
[26] = system: MDA-N
[27] = system: MOLT-4
[28] = system: Malme-3M
[29] = system: NCI-H226
[30] = system: NCI-H23
[31] = system: NCI-H460
[32] = system: NCI-H522
[33] = system: NCI/ADR-RES
[34] = system: OVCAR-3
[35] = system: OVCAR-4
[36] = system: OVCAR-5
[37] = system: OVCAR-8
[38] = system: PC-3
[39] = system: RPMI-8226
[40] = system: RXF 393
[41] = system: SF-268
[42] = system: SF-295
[43] = system: SF-539
[44] = system: SK-MEL-28
[45] = system: SK-MEL-2
[46] = system: SK-MEL-5
[47] = system: SK-OV-3
[48] = system: SN12C
[49] = system: SNB-19
[50] = system: SNB-75
[51] = system: SW-620
[52] = system: T47D
[53] = system: TK-10
[54] = system: U-251
[55] = system: UACC-257
[56] = system: UACC-62
[57] = system: UO-31

Measured: GI50

CC(C)CCNC(=O)c1ccc(CNC(=O)/C=C/c2csc(-c3ccccc3)n2)cc1
inactive: [1] 32.7 µM | [2] 19.9 µM | [3] 40.1 µM | [4] 52.7 µM | [5] 78.5 µM | [6] 18.7 µM | [7] > 100 µM | [8] > 100 µM | [9] > 100 µM | [10] > 100 µM | [11] > 100 µM | [12] 46.7 µM | [14] 17.9 µM | [15] 27.7 µM | [16] 31.1 µM | [17] 32.6 µM | [18] 34.2 µM | [19] > 100 µM | [20] > 100 µM | [21] > 100 µM | [22] > 100 µM | [23] > 100 µM | [24] 33 µM | [25] > 100 µM | [26] > 100 µM | [27] > 100 µM | [28] 29.9 µM | [29] 33.3 µM | [30] > 100 µM | [31] > 100 µM | [32] 41 µM | [33] 36.9 µM | [34] > 100 µM | [35] 14.5 µM | [36] > 100 µM | [37] 25.8 µM | [38] > 100 µM | [39] > 100 µM | [40] 17.3 µM | [41] 35.4 µM | [42] 33.9 µM | [43] > 100 µM | [44] 57.7 µM | [45] > 100 µM | [46] 29.5 µM | [47] 40 µM | [48] 64.3 µM | [49] 17.8 µM | [50] 14.4 µM | [51] > 100 µM | [52] 33.2 µM | [53] 53.2 µM | [54] 29.4 µM | [55] 96.8 µM | [56] > 100 µM | [57] 19.6 µM
95.5 µM: [13]

Fc1ccc(C(OCCN2CCC3CCC(C2)N3C/C=C/c2cccs2)c2ccc(F)cc2)cc1 (stereo not drawn)
active: [39] 0.0133 µM
inactive: [1] 8.49 µM | [2] 9.06 µM | [3] 11 µM | [4] 11.8 µM | [5] 13.2 µM | [6] 10.2 µM | [7] 8.09 µM | [8] 1.96 µM | [9] 12.3 µM | [10] 4.41 µM | [11] 3.21 µM | [12] 3.45 µM | [14] 13.6 µM | [15] 6.25 µM | [16] 1.37 µM | [17] 12.1 µM | [18] 10.1 µM | [20] 4.44 µM | [21] 6.38 µM | [22] 4.25 µM | [23] 7.69 µM | [24] 9.31 µM | [25] 6.98 µM | [26] 10.3 µM | [27] 1.21 µM | [28] 6.03 µM | [29] 7.19 µM | [30] 8.34 µM | [31] 3.08 µM | [32] 5.02 µM | [33] 6.24 µM | [34] 10.6 µM | [35] 7.36 µM | [36] 13.1 µM | [37] 4.06 µM | [38] 5.75 µM | [40] 3.77 µM | [41] 12.2 µM | [42] 10.5 µM | [43] 10.6 µM | [44] 6.47 µM | [45] 10.7 µM | [46] 3.04 µM | [47] 12.9 µM | [48] 5.69 µM | [49] 13.9 µM | [50] 14.7 µM | [51] 5.98 µM | [52] 3.56 µM | [53] 11.1 µM | [54] 5.64 µM | [55] 3.66 µM | [56] 11.5 µM | [57] 12 µM
4.06 µM: [13]
